Type in all cases: biochemical
Experiment [1] concerns the target T1, hyaluronidase type IV-S from a bovine testis (Bos taurus, UniProt Q2YDK3).
T1 construct: gene SPAM1
T1 sequence (Q2YDK3 36-553): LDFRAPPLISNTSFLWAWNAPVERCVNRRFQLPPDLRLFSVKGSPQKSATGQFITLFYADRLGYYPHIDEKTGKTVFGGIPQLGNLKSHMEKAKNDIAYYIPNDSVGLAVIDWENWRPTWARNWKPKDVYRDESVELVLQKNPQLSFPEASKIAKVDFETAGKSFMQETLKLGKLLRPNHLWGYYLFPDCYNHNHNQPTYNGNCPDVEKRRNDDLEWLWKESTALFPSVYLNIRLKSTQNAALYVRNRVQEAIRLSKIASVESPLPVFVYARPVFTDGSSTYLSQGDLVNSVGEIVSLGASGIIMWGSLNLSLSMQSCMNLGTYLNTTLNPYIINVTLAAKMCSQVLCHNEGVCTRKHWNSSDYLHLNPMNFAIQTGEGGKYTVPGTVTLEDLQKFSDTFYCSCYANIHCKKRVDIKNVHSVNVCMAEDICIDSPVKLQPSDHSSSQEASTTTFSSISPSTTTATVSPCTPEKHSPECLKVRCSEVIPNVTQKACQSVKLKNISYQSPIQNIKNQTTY
The experiment in a line: Morgan-Elson colorimetric hyaluronidase assay.

In experiment [2] the target is T1, hyaluronidase type IV-S from a bovine testis. Nature of the experiment: Morgan-Elson colorimetric hyaluronidase assay. This is another data set of the same source.
For experiment [3] the target is unchanged. The experiment in a line: Morgan-Elson colorimetric hyaluronidase assay, positive control.

The values below come from publication PMC6149712, “Anti-Allergic Activity of Monoacylated Ascorbic Acid 2-Glucosides” (Molecules : A Journal of Synthetic Chemistry and Natural …, 2017).

Where a name gives a salt, the structure may show the parent alone.

Usually IC50 stands for the point on the concentration scale where inhibition reaches its midpoint. A higher IC50 goes with lower potency. In experiment [1], `CCCCCCCCCCCCCCCC(=O)OC[C@H](O)[C@H]1OC(=O)C(O)=C1O` [6-Palm-AA, 6-O-palmitoyl-L-AA] yielded an IC50 of 194 µM.

On to `CCCCCCC(CCCCCC)C(=O)OC[C@H](O)[C@H]1OC(=O)C(O[C@H]2O[C@H](CO)[C@@H](O)[C@H](O)[C@H]2O)=C1O` [6-bMyri-AA-2G], for which, in experiment [2], the “Morgan-Elson colorimetric hyaluronidase assay” value is 6-bMyri-AA-2G and 6-bPalm-AA-2G significantly inhibited the activity more than 6-bDode-AA-2G.

As to `CCCCCCCC(CCCCCCC)C(=O)OC[C@H](O)[C@H]1OC(=O)C(O[C@H]2O[C@H](CO)[C@@H](O)[C@H](O)[C@H]2O)=C1O` [6-bPalm-AA-2G], the “Morgan-Elson colorimetric hyaluronidase assay” value in experiment [2] is 6-bMyri-AA-2G and 6-bPalm-AA-2G significantly inhibited the activity more than 6-bDode-AA-2G.

`CCCCCCCCCCCCCC(=O)OC[C@H](O)[C@H]1OC(=O)C(O[C@H]2O[C@H](CO)[C@@H](O)[C@H](O)[C@H]2O)=C1O` [6-sMyri-AA-2G]: the “Morgan-Elson colorimetric hyaluronidase assay” value in experiment [2] is 6-sMyri-AA-2G and 6-sPalm-AA-2G significantly inhibited the activity more than 6-sDode-AA-2G.

In experiment [1], `CCCCCCCCCCCCCCCC(=O)OC[C@H](O)[C@H]1OC(=O)C(O[C@H]2O[C@H](CO)[C@@H](O)[C@H](O)[C@H]2O)=C1O` [6-sPalm-AA-2G, 2-O-α-D-Glucopyranosyl-6-O-hexadecanoyl-L-ascorbic acid] yielded an IC50 of 22 µM.

On to `CCCCCCCCCCCCCCCC(=O)OC[C@H](O)[C@H]1OC(=O)C(O[C@@H]2O[C@H](CO)[C@@H](O)[C@H](O)[C@H]2O)=C1O` [6-sPalm-AA-2βG, 2-O-β-D-glucopyranosyl-6-O-hexadecanoyl-L-ascorbic acid], for which the IC50 in experiment [1] was 25 µM.

Turning to `O=C(O)c1cc(=O)c2c(OCC(O)COc3cccc4oc(C(=O)O)cc(=O)c34)cccc2o1` [DSCG, Cromolyn sodium salt], in experiment [3], the “Morgan-Elson colorimetric hyaluronidase assay, positive control” value was “Cromolyn sodium salt (DSCG), which is used clinically as an anti-allergy drug, was used as a positive control”.
